Results taken from the supplement of paper PMC10307832.

Columns and labels:
Assay in all cases: relative viability (nuclei count vs DMSO), 5 days (fraction); higher = more cells survive
[1] = compound: C[C@@H](N)c1ccc(C(=O)Nc2ccnc3[nH]ccc23)cc1 + Nc1ncn([C@H]2C[C@H](O)[C@@H](CO)O2)c(=O)n1 [Decitabine] (partner 2 µM)
Procedure, shortened: (§1)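 Five library-drug doses in √10 steps were combined with a fixed anchor-drug dose, or a single drug was given alone, by pin tool to lung cancer cell lines in 1536-well plates the day after seeding. Nuclei were stained and counted after 5 days. Relative viability is the nuclei count in treated wells over that in vehicle wells, taken as the median of duplicate plates.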

[2] = compound: C[C@@H](N)c1ccc(C(=O)Nc2ccnc3[nH]ccc23)cc1 + Cc1cc(Nc2cc(N3CCN(C)CC3)nc(Sc3ccc(NC(=O)C4CC4)cc3)n2)n[nH]1 [Tozasertib] (partner 0.1 µM)
Procedure, shortened: as §1

[3] = compound: C1CNCCC1C2=CC(=NN2)C3=CC=NC=C3 + COc1cc2c(Oc3ccc(NC(=O)C4(C(=O)Nc5ccc(F)cc5)CC4)cc3F)ccnc2cc1OCCCN1CCOCC1 [Foretinib] (partner 0.25 µM)
Procedure, shortened: as §1

[4] = compound: C1CNCCC1C2=CC(=NN2)C3=CC=NC=C3 + CS(=O)(=O)CCNCc1ccc(-c2ccc3ncnc(Nc4ccc(OCc5cccc(F)c5)c(Cl)c4)c3c2)o1 [Lapatinib] (partner 2 µM)
Procedure, shortened: as §1

Cell Line: NCI-H322M
- relative viability ([1]; first compound 0.04 µM): 0.744
- relative viability ([1]; first compound 0.1265 µM): 0.833
- relative viability ([1]; first compound 0.4 µM): 0.906
- relative viability ([1]; first compound 1.265 µM): 0.809
- relative viability ([1]; first compound 4 µM): 0.876
- relative viability ([2]; first compound 0.04 µM): 0.491
- relative viability ([2]; first compound 0.1265 µM): 0.521
- relative viability ([2]; first compound 0.4 µM): 0.494
- relative viability ([2]; first compound 4 µM): 0.464
- relative viability ([3]; first compound 0.08 µM): 0.965
- relative viability ([3]; first compound 0.8 µM): 1.1
- relative viability ([3]; first compound 2.53 µM): 1.02
- relative viability ([3]; first compound 8 µM): 1.13
- relative viability ([4]; first compound 0.08 µM): 0.545
- relative viability ([4]; first compound 0.8 µM): 0.555
- relative viability ([4]; first compound 2.53 µM): 0.592
- relative viability ([4]; first compound 8 µM): 0.524

Cell Line: NCI-H358
- relative viability ([1]; first compound 0.04 µM): 0.232
- relative viability ([1]; first compound 0.1265 µM): 0.222
- relative viability ([1]; first compound 0.4 µM): 0.191
- relative viability ([1]; first compound 1.265 µM): 0.19
- relative viability ([1]; first compound 4 µM): 0.207
- relative viability ([2]; first compound 0.04 µM): 0.111
- relative viability ([2]; first compound 0.1265 µM): 0.109
- relative viability ([2]; first compound 0.4 µM): 0.0968
- relative viability ([2]; first compound 1.265 µM): 0.105
- relative viability ([2]; first compound 4 µM): 0.0998
- relative viability ([3]; first compound 0.08 µM): 0.551
- relative viability ([3]; first compound 0.8 µM): 0.672
- relative viability ([3]; first compound 2.53 µM): 0.727
- relative viability ([3]; first compound 8 µM): 0.69
- relative viability ([4]; first compound 0.08 µM): 0.388
- relative viability ([4]; first compound 0.8 µM): 0.463
- relative viability ([4]; first compound 2.53 µM): 0.43
- relative viability ([4]; first compound 8 µM): 0.462

Cell Line: NCI-H460
- relative viability ([1]; first compound 0.04 µM): 0.525
- relative viability ([1]; first compound 0.1265 µM): 0.485
- relative viability ([1]; first compound 0.4 µM): 0.581
- relative viability ([1]; first compound 1.265 µM): 0.575
- relative viability ([1]; first compound 4 µM): 0.451
- relative viability ([2]; first compound 0.04 µM): 0.606
- relative viability ([2]; first compound 0.1265 µM): 0.405
- relative viability ([2]; first compound 0.4 µM): 0.571
- relative viability ([2]; first compound 1.265 µM): 0.392
- relative viability ([2]; first compound 4 µM): 0.771
- relative viability ([3]; first compound 0.08 µM): 0.978
- relative viability ([3]; first compound 0.8 µM): 1.1
- relative viability ([3]; first compound 2.53 µM): 1.02
- relative viability ([3]; first compound 8 µM): 1.07
- relative viability ([4]; first compound 0.08 µM): 0.68
- relative viability ([4]; first compound 0.8 µM): 1.4
- relative viability ([4]; first compound 2.53 µM): 1.11
- relative viability ([4]; first compound 8 µM): 1.03

Cell Line: NCI-H520
- relative viability ([1]; first compound 0.04 µM): 0.579
- relative viability ([1]; first compound 0.1265 µM): 0.552
- relative viability ([1]; first compound 0.4 µM): 0.61
- relative viability ([1]; first compound 1.265 µM): 0.617
- relative viability ([1]; first compound 4 µM): 0.569
- relative viability ([2]; first compound 0.04 µM): 0.52
- relative viability ([2]; first compound 0.1265 µM): 0.462
- relative viability ([2]; first compound 0.4 µM): 0.448
- relative viability ([2]; first compound 1.265 µM): 0.535
- relative viability ([2]; first compound 4 µM): 0.424
- relative viability ([3]; first compound 0.08 µM): 0.613
- relative viability ([3]; first compound 0.8 µM): 0.722
- relative viability ([3]; first compound 2.53 µM): 0.811
- relative viability ([3]; first compound 8 µM): 0.545
- relative viability ([4]; first compound 0.08 µM): 0.763
- relative viability ([4]; first compound 0.8 µM): 0.897
- relative viability ([4]; first compound 2.53 µM): 0.92
- relative viability ([4]; first compound 8 µM): 0.835

Cell Line: NCI-H596
- relative viability ([1]; first compound 0.04 µM): 1.02
- relative viability ([1]; first compound 0.1265 µM): 1.11
- relative viability ([1]; first compound 0.4 µM): 1.09
- relative viability ([1]; first compound 1.265 µM): 1.19
- relative viability ([1]; first compound 4 µM): 1.13
- relative viability ([2]; first compound 0.04 µM): 0.934
- relative viability ([2]; first compound 0.1265 µM): 0.839
- relative viability ([2]; first compound 0.4 µM): 0.978
- relative viability ([2]; first compound 4 µM): 0.843
- relative viability ([3]; first compound 0.08 µM): 0.87
- relative viability ([3]; first compound 0.8 µM): 0.834
- relative viability ([3]; first compound 2.53 µM): 0.965
- relative viability ([3]; first compound 8 µM): 0.889
- relative viability ([4]; first compound 0.08 µM): 1.08
- relative viability ([4]; first compound 0.8 µM): 1.17
- relative viability ([4]; first compound 2.53 µM): 1.07
- relative viability ([4]; first compound 8 µM): 0.993

Cell Line: NCI-H647
- relative viability ([1]; first compound 0.04 µM): 0.314
- relative viability ([1]; first compound 0.1265 µM): 0.324
- relative viability ([1]; first compound 0.4 µM): 0.419
- relative viability ([1]; first compound 1.265 µM): 0.521
- relative viability ([1]; first compound 4 µM): 0.335
- relative viability ([2]; first compound 0.04 µM): 0.322
- relative viability ([2]; first compound 0.1265 µM): 0.227
- relative viability ([2]; first compound 0.4 µM): 0.426
- relative viability ([2]; first compound 1.265 µM): 0.324
- relative viability ([2]; first compound 4 µM): 0.303
- relative viability ([3]; first compound 0.08 µM): 0.922
- relative viability ([3]; first compound 0.8 µM): 1.04
- relative viability ([3]; first compound 2.53 µM): 1.27
- relative viability ([3]; first compound 8 µM): 1.32
- relative viability ([4]; first compound 0.08 µM): 1.06
- relative viability ([4]; first compound 0.8 µM): 1.26
- relative viability ([4]; first compound 2.53 µM): 1.15
- relative viability ([4]; first compound 8 µM): 1.01

Cell Line: NCI-H650
- relative viability ([1]; first compound 0.1265 µM): 0.3
- relative viability ([1]; first compound 0.4 µM): 0.369
- relative viability ([1]; first compound 4 µM): 0.3
- relative viability ([2]; first compound 0.1265 µM): 0.665
- relative viability ([2]; first compound 0.4 µM): 0.775
- relative viability ([2]; first compound 1.265 µM): 0.644
- relative viability ([2]; first compound 4 µM): 0.588
- relative viability ([3]; first compound 0.08 µM): 1
- relative viability ([3]; first compound 0.8 µM): 0.924
- relative viability ([3]; first compound 2.53 µM): 1.06
- relative viability ([3]; first compound 8 µM): 0.998
- relative viability ([4]; first compound 0.08 µM): 0.966
- relative viability ([4]; first compound 0.8 µM): 0.773
- relative viability ([4]; first compound 2.53 µM): 1.11
- relative viability ([4]; first compound 8 µM): 0.951

Cell Line: NCI-H661
- relative viability ([1]; first compound 0.04 µM): 0.51
- relative viability ([1]; first compound 0.1265 µM): 0.59
- relative viability ([1]; first compound 0.4 µM): 0.573
- relative viability ([1]; first compound 1.265 µM): 0.493
- relative viability ([1]; first compound 4 µM): 0.504
- relative viability ([2]; first compound 0.04 µM): 0.286
- relative viability ([2]; first compound 0.1265 µM): 0.355
- relative viability ([2]; first compound 0.4 µM): 0.378
- relative viability ([2]; first compound 1.265 µM): 0.34
- relative viability ([2]; first compound 4 µM): 0.363
- relative viability ([3]; first compound 0.08 µM): 1.1
- relative viability ([3]; first compound 0.8 µM): 1.05
- relative viability ([3]; first compound 2.53 µM): 1.01
- relative viability ([3]; first compound 8 µM): 1.02
- relative viability ([4]; first compound 0.08 µM): 0.466
- relative viability ([4]; first compound 0.8 µM): 0.475
- relative viability ([4]; first compound 2.53 µM): 0.479
- relative viability ([4]; first compound 8 µM): 0.55

Cell Line: NCI-H727
- relative viability ([1]; first compound 0.04 µM): 1
- relative viability ([1]; first compound 0.1265 µM): 1.03
- relative viability ([1]; first compound 0.4 µM): 0.942
- relative viability ([1]; first compound 1.265 µM): 0.764
- relative viability ([1]; first compound 4 µM): 0.908
- relative viability ([2]; first compound 0.04 µM): 0.654
- relative viability ([2]; first compound 0.1265 µM): 0.746
- relative viability ([2]; first compound 0.4 µM): 0.66
- relative viability ([2]; first compound 1.265 µM): 0.602
- relative viability ([2]; first compound 4 µM): 0.544
- relative viability ([3]; first compound 0.08 µM): 0.805
- relative viability ([3]; first compound 0.8 µM): 0.758
- relative viability ([3]; first compound 2.53 µM): 1.13
- relative viability ([3]; first compound 8 µM): 0.904
- relative viability ([4]; first compound 0.08 µM): 0.717
- relative viability ([4]; first compound 0.8 µM): 0.847
- relative viability ([4]; first compound 2.53 µM): 1.01
- relative viability ([4]; first compound 8 µM): 0.981
